Test results reported in BindingDB's records for doi:10.1021/acschembio.6b00304 (Icahn School of Medicine At Mount Sinai, 2016).

Target: T1, Solute carrier family 2, facilitated glucose transporter member 1 (Homo sapiens, UniProt P11166)
T1 sequence (P11166 whole entry): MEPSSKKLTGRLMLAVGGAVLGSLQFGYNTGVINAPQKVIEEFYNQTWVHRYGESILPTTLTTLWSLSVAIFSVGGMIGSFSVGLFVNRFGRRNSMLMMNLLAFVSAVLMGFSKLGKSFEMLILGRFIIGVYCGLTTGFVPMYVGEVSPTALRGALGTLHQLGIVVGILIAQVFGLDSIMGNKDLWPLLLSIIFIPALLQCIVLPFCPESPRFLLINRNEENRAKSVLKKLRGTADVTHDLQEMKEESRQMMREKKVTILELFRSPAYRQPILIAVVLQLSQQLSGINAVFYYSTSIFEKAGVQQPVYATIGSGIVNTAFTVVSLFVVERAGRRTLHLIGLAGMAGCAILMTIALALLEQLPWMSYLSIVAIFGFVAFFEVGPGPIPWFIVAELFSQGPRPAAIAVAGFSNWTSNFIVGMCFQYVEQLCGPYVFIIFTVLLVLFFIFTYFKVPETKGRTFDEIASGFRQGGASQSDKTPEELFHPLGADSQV
Experiment: [3H]-2-Deoxy-D-glucose ([3H]-2-DG) Uptake Assay
Description: The stably transfected CHO cells were seeded in poly 24-well plates and were grown to 80−90% confluence. […] The known hGLUT1 inhibitor phloretin (Accela ChemBio, San Diego, CA) was included as a positive control. […] Compounds were obtained from the National Cancer Institute (NCI) or purchased from commercial vendors. The reaction was terminated by washing cells twice with ice-cold PBS, followed by the addition of 200 μL of lysis buffer (0.1% (w/v) SDS, 0.1 N NaOH).Intracellular radioactivity was determined by scintillation counting.

Row | Compound | IC50 [µM]
1 | c1ccc(CNc2ncnc3n[nH]nc23)cc1 [PUG-4] | 30
2 | O=c1[nH]ncc2c1Sc1cn[nH]c(=O)c1S2 [PUG-7] | 11.8
3 | NNc1nc(NCc2ccco2)c2nc[nH]c2n1 [PUG-3] | 27.1
4 | O=c1[nH]c(=O)c2ncn(-c3ccccc3)c2[nH]1 [PUG-2] | 58.6
5 | O=c1[nH][nH]c(=O)c2[nH]cnc12 [PUG-8] | 22.5
6 | O=C(CCc1ccc(O)cc1)c1c(O)cc(O)cc1O[C@H]1O[C@@H](CO)[C@H](O)[C@@H](O)[C@@H]1O [PUG-5 (Phlorizin)] | 23
7 | CC[C@@H]1O[C@H](c2cc(O)cc(/C=C/c3ccc(O)c(O)c3)c2)[C@@H](O)[C@H](O)[C@H]1O [PUG-6] | 37.9
